{
  "source": "patent US20110118262A1",
  "about": "“Pyrrolidinyl and Piperidinyl Compounds Useful as NHE-1 Inhibitiors” (BOEHRINGER INGELHEIM INTERNATIONAL GMBH, priority 2008, published 2011)",
  "data": [
    {"biological_target": "T1, NHE-1 (Homo sapiens, UniProt P19634)", "T1 construct": "endogenous in cells; host or cells: HT-29", "T1 sequence (P19634 whole entry)": "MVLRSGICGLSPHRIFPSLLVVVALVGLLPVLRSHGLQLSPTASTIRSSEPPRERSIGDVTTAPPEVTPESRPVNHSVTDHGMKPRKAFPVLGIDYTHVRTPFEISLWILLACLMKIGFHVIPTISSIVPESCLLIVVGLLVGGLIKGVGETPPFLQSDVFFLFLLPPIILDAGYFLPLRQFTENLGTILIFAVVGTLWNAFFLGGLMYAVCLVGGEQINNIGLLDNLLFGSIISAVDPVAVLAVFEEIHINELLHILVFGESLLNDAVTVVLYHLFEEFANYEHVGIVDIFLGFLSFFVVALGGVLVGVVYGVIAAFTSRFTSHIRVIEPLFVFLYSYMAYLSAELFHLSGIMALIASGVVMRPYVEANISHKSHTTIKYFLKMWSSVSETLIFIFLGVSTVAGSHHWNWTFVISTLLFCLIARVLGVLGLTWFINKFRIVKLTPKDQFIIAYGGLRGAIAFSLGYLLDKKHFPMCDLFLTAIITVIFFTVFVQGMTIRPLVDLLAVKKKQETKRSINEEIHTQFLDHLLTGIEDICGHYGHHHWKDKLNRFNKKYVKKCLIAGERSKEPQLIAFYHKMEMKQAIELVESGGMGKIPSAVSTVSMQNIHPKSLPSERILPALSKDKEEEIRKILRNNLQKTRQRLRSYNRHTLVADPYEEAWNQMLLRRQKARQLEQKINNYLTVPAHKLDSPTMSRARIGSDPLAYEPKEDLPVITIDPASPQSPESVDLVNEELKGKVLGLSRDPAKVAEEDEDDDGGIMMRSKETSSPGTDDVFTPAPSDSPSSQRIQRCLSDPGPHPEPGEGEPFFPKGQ", "assay": "Evaluation of NHE-1 Inhibition (pHi) in HT-29 cells", "assay_type": "cell-based", "conditions": "BCECF dye, 50% inhibition of the intracellular pH recovery, read-out: NHE1 HT29 pHi IC50", "method": "Evaluation of NHE-1 Inhibition (pHi)\nHT-29 cells resuspended in DMEM supplemented with 10% FBS, 1% NEAA, and 1% Penn-Strep are seeded at 10,000 cells/well in collagen coated 384 well plates which are then incubated for 24 hours at 37° C. The next day, the medium is removed and the cells are dye (Invitrogen's BCECF) loaded for 30 minutes at 37° C., washed three times with an acid loading buffer (10 mM NH4Cl, 1.8 mM CaCl2, 90 mM Choline Cl, 5 mM Glucose, 15 mM Hepes, 5 mM KCl, 1 mM MgCl2, adjusted to pH 7.5 with KOH) and further incubated at RT for 30 minutes.\nAt the end of the incubation, the buffer is removed and 5 uL of fresh acid loading buffer is added to each well to prevent the dessication of the cells. The plate is placed in a Hamamatsu FDSS6000 instrument and candidate compounds are added to the cells.", "units": {"IC50": "nM"}, "values": [
      {"smiles": "Cc1cc(C2CCN(C(=O)c3ccc(F)cc3)CC2)c(C(F)(F)F)cc1C(=O)NC(=N)N", "note": "[N-{4-[1-(4-Fluoro-benzoyl)-piperidin-4-yl]-2-methyl-5-trifluoromethyl-benzoyl}-guanidine]", "IC50": 7},
      {"smiles": "COCC(=O)N1CCC(c2ccc(C(=O)NC(=N)N)cc2C(F)(F)F)CC1", "note": "[N-{4-[1-(2-Methoxy-acetyl)-piperidin-4-yl]-3-trifluoromethyl-benzoyl}-guanidine]", "IC50": 22},
      {"smiles": "N=C(N)NC(=O)c1ccc(C2CCN(C(=O)Cc3cccnc3)CC2)c(C(F)(F)F)c1", "note": "[N-{4-[1-(2-Pyridin-3-yl-acetyl)-piperidin-4-yl]-3-trifluoromethyl-benzoyl}-guanidine]", "IC50": 27},
      {"smiles": "CS(=O)(=O)c1cc(C(=O)NC(=N)N)ccc1C1CCN(C(=O)c2cccc(C(F)(F)F)c2)CC1", "note": "[N-{3-methanesulfonyl-4-[1-(3-trifluoromethyl-benzoyl)-piperidin-4-yl]-benzoyl}-guanidine]", "IC50": 54},
      {"smiles": "CS(=O)(=O)c1cc(C(=O)NC(=N)N)ccc1C1CCN(C(=O)c2ccc(F)cc2)CC1", "note": "[N-{4-[1-(4-Fluoro-benzoyl)-piperidin-4-yl]-3-methanesulfonyl-benzoyl}-guanidine]", "IC50": 18},
      {"smiles": "N=C(N)NC(=O)c1ccc(C2CCN(C(=O)c3ccc(-n4cccn4)nc3)CC2)c(C(F)(F)F)c1", "note": "[N-{4-[1-(6-Pyrazol-1-yl-pyridine-3-carbonyl)-piperidin-4-yl]-3-trifluoromethyl-benzoyl}-guanidine]", "IC50": 92},
      {"smiles": "N=C(N)NC(=O)c1ccc(C2CCN(C(=O)c3cccc(-c4cccnc4)c3)CC2)c(C(F)(F)F)c1", "note": "[N-{4-[1-(3-Pyridin-3-yl-benzoyl)-piperidin-4-yl]-3-trifluoromethyl-benzoyl}-guanidine]", "IC50": 140},
      {"smiles": "CC(=O)N1CCC(c2ccc(C(=O)NC(=N)N)cc2S(C)(=O)=O)CC1", "note": "[N-[4-(1-Acetyl-piperidin-4-yl)-3-methanesulfonyl-benzoyl]-guanidine]", "IC50": 18},
      {"smiles": "Cn1ccnc1C(=O)N1CCC(c2ccc(C(=O)NC(=N)N)cc2C(F)(F)F)CC1", "note": "[N-{4-[1-(1-Methyl-1H-imidazole-2-carbonyl)-piperidin-4-yl]-3-trifluoromethyl-benzoyl}-guanidine]", "IC50": 15},
      {"smiles": "CC1(C(=O)N2CCC(c3ccc(C(=O)NC(=N)N)cc3C(F)(F)F)CC2)CCCN1", "note": "(stereo not shown) [N-{4-[1-(2-Methyl-pyrrolidine-2-carbonyl)-piperidin-4-yl]-3-trifluoromethyl-benzoyl}-guanidine]", "IC50": 12},
      {"smiles": "N=C(N)NC(=O)c1ccc(C2CCN(C(=O)C(N)CO)CC2)c(C(F)(F)F)c1", "note": "(stereo not shown) [N-{4-[1-(2-Amino-3-hydroxy-propionyl)-piperidin-4-yl]-3-trifluoromethyl-benzoyl}-guanidine]", "IC50": 5},
      {"smiles": "CS(=O)(=O)c1ccc(C(=O)N2CC=C(c3ccc(C(=O)NC(=N)N)cc3C(F)(F)F)CC2)cc1", "note": "[N-{4-[1-(4-Methanesulfonyl-benzoyl)-1,2,3,6-tetrahydro-pyridin-4-yl]-3-trifluoromethyl-benzoyl}-guanidine]", "IC50": 49},
      {"smiles": "CNS(=O)(=O)c1ccc(C(=O)N2CCC(c3ccc(C(=O)NC(=N)N)cc3C(F)(F)F)CC2)cc1", "note": "[4-[4-(4-Guanidinocarbonyl-2-trifluoromethyl-phenyl)-piperidine-1-carbonyl]-N-methyl-benzenesulfonamide]", "IC50": 51},
      {"smiles": "COc1cc(C2CCN(C(=O)c3ccn[nH]3)CC2)c(C(F)(F)F)cc1C(=O)NC(=N)N", "note": "[N-{2-Methoxy-4-[1-(2H-pyrazole-3-carbonyl)-piperidin-4-yl]-5-trifluoromethyl-benzoyl}-guanidine]", "IC50": 6},
      {"smiles": "CN(C)S(=O)(=O)c1ccc(C(=O)N2CCC(c3ccc(C(=O)NC(=N)N)cc3C(F)(F)F)CC2)cc1", "note": "[4-[4-(4-Guanidinocarbonyl-2-trifluoromethyl-phenyl)-piperidine-1-carbonyl]-N,N-dimethyl-benzenesulfonamide]", "IC50": 36},
      {"smiles": "N=C(N)NC(=O)c1ccc(C2CCN(C(=O)C(N)Cc3cccs3)CC2)c(C(F)(F)F)c1", "note": "(stereo not shown) [N-{4-[1-(2-Amino-3-thiophen-2-yl-propionyl)-piperidin-4-yl]-3-trifluoromethyl-benzoyl}-guanidine]", "IC50": 35}
    ]}
  ]
}
